Tests used:
[1] = target: T1, human recombinant COX-2 (Homo sapiens, UniProt P35354); assay: COX-2 in vitro enzymatic assay (PGE2 ELISA); format: biochemical; settings: for inhibition at 20 µM: compound at 20 μM; for inhibition of COX-2 (in words): at 50 μM
T1 construct: purchased Sigma-Aldrich
T1 sequence (P35354 18-604): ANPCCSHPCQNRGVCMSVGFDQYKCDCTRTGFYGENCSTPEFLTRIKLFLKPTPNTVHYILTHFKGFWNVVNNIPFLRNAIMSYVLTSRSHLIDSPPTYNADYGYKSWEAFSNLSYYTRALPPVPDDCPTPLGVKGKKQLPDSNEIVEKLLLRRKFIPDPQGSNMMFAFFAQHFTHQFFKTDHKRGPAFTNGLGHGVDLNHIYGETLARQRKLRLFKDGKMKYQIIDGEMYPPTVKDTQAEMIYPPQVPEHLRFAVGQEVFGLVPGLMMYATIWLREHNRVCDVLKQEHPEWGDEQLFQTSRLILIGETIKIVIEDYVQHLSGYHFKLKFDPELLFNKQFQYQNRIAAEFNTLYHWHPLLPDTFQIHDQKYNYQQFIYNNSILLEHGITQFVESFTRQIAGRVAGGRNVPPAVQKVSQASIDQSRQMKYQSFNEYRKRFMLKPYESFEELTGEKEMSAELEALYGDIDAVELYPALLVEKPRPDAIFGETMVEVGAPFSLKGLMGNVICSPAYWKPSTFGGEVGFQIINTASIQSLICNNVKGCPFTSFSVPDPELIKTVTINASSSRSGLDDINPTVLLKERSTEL
Protocol: (§1) The inhibitory activity of compounds was tested using in vitro enzymatic assay. Ovine COX-1 (1 unit/reaction) or human recombinant COX-2 (0.5 unit/reaction; both enzymes Sigma-Aldrich, USA) was added to 180 µL of 100 mM Tris buffer (pH 8.0), containing 5 μM porcine hematin, 18 mM L-epinephrine, and 50 μM Na2EDTA. Ten µL of tested compound dissolved in DMSO or pure DMSO (as a blank) were added to the reaction.
(§2) Sigma-Aldrich, USA) was used as a reference inhibitor. After 5 min incubation at room temperature, reaction was initiated by 5 µL of arachidonic acid (10 µM) and incubated 20 min in 37°C. Then the reaction was stopped by 20 µL of formic acid (10% v/v). The concentration of prostaglandin E2 (PGE2) was measured with Prostaglandin E2 ELISA kit (Enzo Life Sciences, USA). Reaction mixture was diluted 1:15 in assay buffer (provided in the kit) and incubated according to the manufacturer instructions.
(§3) The concentration of PGE2 produced during the reaction was estimated according to absorbance […]
(§4) inhibitory activity was calculated as percentual inhibition of PGE2 production compared to blank. At first, the inhibitory activity of compounds was tested at 20 µM to see if there is any activity. IC50 […]
(§5) of COX-2. The level of percentual inhibition was chosen based on the percentual inhibition caused by […]
(§6) All the experiments were carried out in duplicates and repeated at least two times. To test whether increasing substrate concentration influences the activity of […]
(§7) reference compound. The inhibitory activity was calculated as percentual inhibition of PGE2 production compared to blank with respective concentration of AA. […]

[2] = target: T2, Ovine COX-1 (Ovis aries, UniProt P05979); assay: COX-1 in vitro enzymatic assay (PGE2 ELISA); format: biochemical; settings: for inhibition at 20 µM: compound at 20 μM; for inhibitory activity in COX assays (in words): less than 50% inhibition on both COX isoforms considered inactive; for selectivity index (COX-2/COX-1): ratio of IC50 COX-2 / IC50 COX-1
T2 construct: purchased Sigma-Aldrich
T2 sequence (P05979 25-600): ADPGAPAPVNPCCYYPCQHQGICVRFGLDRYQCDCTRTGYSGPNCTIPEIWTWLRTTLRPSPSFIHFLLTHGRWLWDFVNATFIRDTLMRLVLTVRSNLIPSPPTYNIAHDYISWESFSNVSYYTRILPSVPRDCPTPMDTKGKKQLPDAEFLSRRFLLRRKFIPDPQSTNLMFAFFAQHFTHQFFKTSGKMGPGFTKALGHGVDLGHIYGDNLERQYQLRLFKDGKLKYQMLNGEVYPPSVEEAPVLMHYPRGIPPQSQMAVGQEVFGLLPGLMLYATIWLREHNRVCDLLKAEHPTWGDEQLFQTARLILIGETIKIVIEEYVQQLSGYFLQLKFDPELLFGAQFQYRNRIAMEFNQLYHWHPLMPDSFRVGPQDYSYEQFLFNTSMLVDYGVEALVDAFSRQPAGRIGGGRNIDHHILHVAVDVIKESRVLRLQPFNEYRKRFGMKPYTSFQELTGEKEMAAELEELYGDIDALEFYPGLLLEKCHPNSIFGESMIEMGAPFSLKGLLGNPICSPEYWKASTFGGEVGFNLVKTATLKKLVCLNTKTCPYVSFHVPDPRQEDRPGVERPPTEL
Protocol: as §1, §2, §3, §4, §5, §6, §7

SMILES | inhibition at 20 µM [1] | inhibition at 20 µM [2] | also measured
Cc1cc(Nc2nc(/C=C/c3ccccc3)nc3ccccc23)n[nH]1 [3j] | 13.8% | 41.6% | 
C(=C\c1nc(Nc2ccccn2)c2ccccc2n1)/c1ccccc1 [3i] | -11.1% | 17.7% | 
C(=C\c1nc(N2CCNCC2)c2ccccc2n1)/c1ccccc1 [3d] | -4.94% | 31.2% | 
CCCOc1ccc(Nc2nc(/C=C/c3ccccc3)nc3ccccc23)cc1 [3o] | -4.79% | 7.33% | 
COC(=O)CCNc1nc(/C=C/c2ccccc2)nc2ccccc12 [3l] | 14.9% | 46.2% | 
Fc1ccc(Nc2nc(/C=C/c3ccccc3)nc3ccccc23)cc1F [3f] | -14.5% | 27.6% | 
FC(F)(F)c1ccc(Nc2nc(/C=C/c3ccccc3)nc3ccccc23)cc1 [3u] | 16.4% | 16.8% | 
FC(F)(F)c1cc(Nc2nc(/C=C/c3ccccc3)nc3ccccc23)cc(C(F)(F)F)c1 [3t] | 10.8% | 20.8% | 
COc1cc(Nc2nc(/C=C/c3ccccc3)nc3ccccc23)cc(OC)c1 [3s] | -14.1% | 23.1% | 
Cc1ccc(Nc2nc(/C=C/c3ccccc3)nc3ccccc23)cc1C [3a] | -38.7% | 50.5% | 
Nc1ccc(Oc2nc(/C=C/c3ccccc3)nc3ccccc23)cc1 [3v] | 3.5% | 94.3% | IC50 [1]: > 50 µM; inhibition of COX-2 (in words) [1]: did not inhibit
Cc1ccc(Nc2nc(/C=C/c3ccccc3)nc3ccccc23)cc1 [3b] | 3.54% | 95.2% | IC50 [1]: 43 ± 10.3 µM
C(=C\c1nc(Nc2cccc3cccnc23)c2ccccc2n1)/c1ccccc1 [3h] | 3.02% | 31.5% | 
Fc1ccc(CNc2nc(Cl)nc3cc(Br)ccc23)cc1F [5b] | 30.6% | 30.4% | 
O=[N+]([O-])c1ccc(Nc2nc(/C=C/c3ccccc3)nc3ccccc23)cc1 [3g] | -24.4% | 13.7% | 
Fc1cc(F)c(Nc2nc(/C=C/c3ccccc3)nc3ccccc23)c(F)c1 [3q] | 12.6% | 24.9% | 
CC(C)(C)c1ccc(Nc2nc(/C=C/c3ccccc3)nc3ccccc23)cc1 [3m] | 9.92% | 14% | 
Fc1ccc(CNc2nc(/C=C/c3ccccc3)nc3ccccc23)cc1F [3k] | 71.8% | 96.8% | IC50 [1]: 10.1 ± 1.38 µM; IC50 [2]: 1.9 ± 0.69 µM; selectivity index (COX-2/COX-1) [2]: 5.32
CCOC(=O)c1ccc(Nc2nc(/C=C/c3ccccc3)nc3ccccc23)cc1 [3e] | -16.3% | 6.76% | 
COc1ccc(CNc2nc(Cl)nc3cc(Br)ccc23)cc1 [5a] | 22.7% | 48.8% | 
Cc1cc(F)cc(Br)c1Nc1nc(/C=C/c2ccccc2)nc2ccccc12 [3r] | -1.77% | 30.6% | 
COc1ccc(Nc2nc(/C=C/c3ccccc3)nc3ccccc23)cc1 [3c] | 2.64% | 95.3% | IC50 [1]: 37.3 ± 9.36 µM
CCCCc1ccc(Nc2nc(/C=C/c3ccccc3)nc3ccccc23)cc1 [3n] | 5.59% | 12.8% | 
Cc1cc(C)c(Nc2nc(/C=C/c3ccccc3)nc3ccccc23)c(C)c1 [3p] | -22.9% | 38% | 

Now from value to compound, other results behind:

inhibition at 20 µM [1] | inhibition at 20 µM [2] | SMILES | also measured
7.04% | 34.1% | COc1ccc(CNc2nc(Cl)nc3cc(-c4ccc(OC)cc4)ccc23)cc1 [6a] | 
7.98% | 6.66% | COc1ccc(-c2ccc3c(NCc4ccc(F)c(F)c4)nc(N4CCOCC4)nc3c2)cc1 [7k] | 
27.6% | 26.6% | COc1ccc(CNc2nc(Cl)nc3cc(-c4ccc(F)cc4)ccc23)cc1 [6b] | 
-3.62% | 66% | Fc1ccc(CNc2nc(N3CCOCC3)nc3cc(-c4cccs4)ccc23)cc1F [7o] | IC50 [1]: > 50 µM; inhibition of COX-2 (in words) [1]: did not inhibit
32.3% | 92.4% | COc1ccc(CNc2nc(Cl)nc3cc(-c4cccs4)ccc23)cc1 [6c] | IC50 [1]: > 50 µM; inhibition of COX-2 (in words) [1]: did not inhibit
27.5% | 82.2% | Cc1ccc(Nc2nc(/C=C/c3ccccc3)nc3cc(Br)ccc23)cc1 [8a] | IC50 [1]: > 50 µM
3.22% | 32.1% | COc1ccc(CNc2nc(N3CCCC3)nc3cc(-c4ccc(F)cc4)ccc23)cc1 [7f] | 
39.9% | 96.5% | Fc1ccc(CNc2nc(Cl)nc3cc(-c4cccs4)ccc23)cc1F [6e] | IC50 [1]: > 50 µM; inhibition of COX-2 (in words) [1]: did not inhibit
0.8% | -3.35% | COc1ccc(CNc2nc(N3CCOCC3)nc3cc(-c4ccc(OC)cc4)ccc23)cc1 [7a] | 
26.5% | 31.6% | COc1ccc(-c2ccc3c(NCc4ccc(F)c(F)c4)nc(Cl)nc3c2)cc1 [6d] | 
8.82% | -23.6% | COc1ccc(-c2ccc3c(NCc4ccc(F)c(F)c4)nc(N4CCCC4)nc3c2)cc1 [7l] | 
4.43% | -1.12% | CCN(CC)c1nc(NCc2ccc(OC)cc2)c2ccc(-c3ccc(F)cc3)cc2n1 [7h] | 
19.4% | 6.91% | COc1ccc(CNc2nc(N3CCCC3)nc3cc(-c4ccc(OC)cc4)ccc23)cc1 [7b] | 
-7.39% | -5.92% | COc1ccc(CNc2nc(N3CCOCC3)nc3cc(-c4ccc(F)cc4)ccc23)cc1 [7e] | 
-5.36% | 14.8% | COc1ccc(CNc2nc(N3CCOCC3)nc3cc(-c4cccs4)ccc23)cc1 [7i] | inhibitory activity in COX assays (in words) [2]: inactive
-1.39% | -10.9% | CCN(CC)c1nc(NCc2ccc(OC)cc2)c2ccc(-c3ccc(OC)cc3)cc2n1 [7d] | 
24.2% | -16.5% | COc1ccc(CNc2nc(N3CCNCC3)nc3cc(-c4ccc(OC)cc4)ccc23)cc1 [7c] | 
21.5% | 84.7% | Fc1ccc(CNc2nc(/C=C/c3ccccc3)nc3cc(Br)ccc23)cc1F [8b] | IC50 [1]: > 50 µM; IC50 [2]: 1.58 ± 0.89 µM; selectivity index (COX-2/COX-1) [2]: COX-1-selective
-2.17% | -38.1% | COc1ccc(CNc2nc(N3CCCC3)nc3cc(-c4cccs4)ccc23)cc1 [7j] | inhibitory activity in COX assays (in words) [2]: inactive
11.7% | -6.25% | COc1ccc(-c2ccc3c(NCc4ccc(F)c(F)c4)nc(N4CCNCC4)nc3c2)cc1 [7m] | 
14.6% | 18% | CCN(CC)c1nc(NCc2ccc(F)c(F)c2)c2ccc(-c3ccc(OC)cc3)cc2n1 [7n] | 
-10.1% | -13.9% | COc1ccc(CNc2nc(N3CCNCC3)nc3cc(-c4ccc(F)cc4)ccc23)cc1 [7g] | 
